We go through 14 molecules from patent US9604989B2, “Imidazopyridazines as Akt kinase inhibitors” (Bayer Intellectual Property GmbH, priority 2011, dated 2017).

The structures appear in SMILES notation. pIC50: −log10 of the molar value. A value given as a limit tells only on which side of the number the result lay.

For assay [1], the target named is His-tagged human recombinant kinase full-length Akt1 (Homo sapiens (Human), UniProt P31749). Kind of assay: Akt1 kinase assay (Akt1 TR-FRET assay). To be noted: 10 μM ATP, 60 min at 22° C., read-out: Akt1 median IC50. It is filed as biochemical. Background: In TR-FRET formats the signal depends on donor and acceptor labels being close together.
Chain of His-tagged human recombinant kinase full-length Akt1 (P31749 whole entry): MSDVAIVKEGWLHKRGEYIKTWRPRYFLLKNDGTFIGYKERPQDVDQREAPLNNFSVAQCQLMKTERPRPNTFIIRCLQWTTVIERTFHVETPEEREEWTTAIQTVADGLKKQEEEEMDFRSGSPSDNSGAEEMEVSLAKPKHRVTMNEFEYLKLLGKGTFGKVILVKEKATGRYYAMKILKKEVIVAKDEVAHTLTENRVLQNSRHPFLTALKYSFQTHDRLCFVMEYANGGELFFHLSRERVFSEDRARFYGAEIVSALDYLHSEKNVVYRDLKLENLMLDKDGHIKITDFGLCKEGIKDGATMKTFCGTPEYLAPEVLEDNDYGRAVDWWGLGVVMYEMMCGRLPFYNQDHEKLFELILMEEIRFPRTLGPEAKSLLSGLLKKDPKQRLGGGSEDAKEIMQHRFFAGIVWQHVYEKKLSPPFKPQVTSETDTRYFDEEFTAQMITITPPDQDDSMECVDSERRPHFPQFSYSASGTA
From the text: Biological Assay 1.0: Akt1 Kinase Assay
Akt1 inhibitory activity of compounds of the present invention was quantified employing the Akt1 TR-FRET assay as described in the following paragraphs.
His-tagged human recombinant kinase full-length Akt1 expressed in insect cells was purchased form Invitrogen (part number PV 3599). As substrate for the kinase reaction the biotinylated peptide biotin-Ahx-[sequence] (C-terminus in amide form) was used which can be purchased e.g. from the company Biosynthan GmbH (Berlin-Buch, Germany).
For the assay 50 nl of a 100 fold concentrated solution of the test compound in DMSO was pipetted into a black low volume 384 well microtiter plate (Greiner Bio-One, Frickenhausen, Germany), 2 μl of a solution of Akt1 in assay buffer [50 mM TRIS/HCl pH 7.5, 5 mM MgCl2, 1 mM dithiothreitol, 0.02% (v/v) Triton X-100 (Sigma)] were added and the mixture was incubated for 15 min at 22° C. to allow pre-binding of the test compounds to the enzyme before the start of the kinase reaction. Then the kinase reaction was started by the addition of 3 μl of a solution of adenosine-tri-phosphate (ATP, 16.7 μM=>final conc. in the 5 μl assay volume is 10 μM) and substrate (1.67 μM=>final conc. in the 5 μl assay volume is 1 μM) in assay buffer and the resulting mixture was incubated for a reaction time of 60 min at 22° C. The concentration of Akt1 in the assay was adjusted depending of the activity of the enzyme lot and was chosen appropriate to have the assay in the linear range, typical enzyme concentrations were in the range of about 0.05 ng/μl (final conc. in the 5 μl assay volume). The reaction was stopped by the addition of 5 μl of a solution of HTRF detection reagents (200 nM streptavidine-XL665 [Cisbio] and 1.5 nM anti-phosho-Serine antibody [Millipore, cat. #35-001] and 0.75 nM LANCE Eu-W 1024 labeled anti-mouse IgG antibody [Perkin Elmer]) in an aqueous EDTA-solution (100 mM EDTA, 0.1% (w/v) bovine serum albumin in 50 mM HEPES/NaOH pH 7.5). The resulting mixture was incubated 1 h at 22° C. to allow the binding of the biotinylated phosphorylated peptide to the streptavidine-XL665 and the antibodies. Subsequently the amount of phosphorylated substrate was evaluated by measurement of the resonance energy transfer from the anti-mouse-IgG-Eu-Chelate to the streptavidine-XL665. Therefore, the fluorescence emissions at 620 nm and 665 nm after excitation at 350 nm was measured in a HTRF reader, e.g. a Rubystar (BMG Labtechnologies, Offenburg, Germany) or a Viewlux (Perkin-Elmer). The ratio of the emissions at 665 nm and at 622 nm was taken as the measure for the amount of phosphorylated substrate.
Assay [2] concerns the target His-tagged human recombinant kinase full-length Akt2 (Homo sapiens (Human), UniProt P31751). Kind of assay: Akt2 kinase assay (Akt2 TR-FRET assay). It is filed as biochemical. To be noted: 10 μM ATP, 60 min at 22° C., read-out: Akt2 median IC50.
From the text: Akt2 inhibitory activity of compounds of the present invention was quantified employing the Akt2 TR-FRET assay as described in the following paragraphs.
His-tagged human recombinant kinase full-length Akt2 expressed in insect cells and activated by PDK1 was purchased form Invitrogen (part number PV 3975). As substrate for the kinase reaction the biotinylated peptide biotin-Ahx-[sequence] (C-terminus in amide form) was used which can be purchased e.g. from the company Biosynthan GmbH (Berlin-Buch, Germany). For the assay 50 nl of a 100 fold concentrated solution of the test compound in DMSO was pipetted into a black low volume 384 well microtiter plate (Greiner Bio-One, Frickenhausen, Germany), 2 μl of a solution of Akt2 in assay buffer [50 mM TRIS/HCl pH 7.5, 5 mM MgCl2, 1 mM dithiothreitol, 0.02% (v/v) Triton X-100 (Sigma)] were added and the mixture was incubated for 15 min at 22° C. to allow pre-binding of the test compounds to the enzyme before the start of the kinase reaction. Then the kinase reaction was started by the addition of 3 μl of a solution of adenosine-tri-phosphate (ATP, 16.7 μM=>final conc. in the 5 μl assay volume is 10 μM) and substrate (1.67 μM=>final conc. in the 5 μl assay volume is 1 μM) in assay buffer and the resulting mixture was incubated for a reaction time of 60 min at 22° C. The concentration of Akt2 in the assay was adjusted depending of the activity of the enzyme lot and was chosen appropriate to have the assay in the linear range, typical enzyme concentrations were in the range of about 0.2 ng/μl (final conc. in the 5 μl assay volume). The reaction was stopped by the addition of 5 μl of a solution of HTRF detection reagents (200 nM streptavidine-XL665 [Cisbio] and 1.5 nM anti-phosho-Serine antibody [Millipore, cat. #35-001] and 0.75 nM LANCE Eu-W 1024 labeled anti-mouse IgG antibody [Perkin Elmer]) in an aqueous EDTA-solution (100 mM EDTA, 0.1% (w/v) bovine serum albumin in 50 mM HEPES/NaOH pH 7.5). The resulting mixture was incubated 1 h at 22° C. to allow the binding of the biotinylated phosphorylated peptide to the streptavidine-XL665 and the antibodies. Subsequently the amount of phosphorylated substrate was evaluated by measurement of the resonance energy transfer from the anti-mouse-IgG-Eu-Chelate to the streptavidine-XL665. Therefore, the fluorescence emissions at 620 nm and 665 nm after excitation at 350 nm was measured in a TR-FRET reader, e.g. a Rubystar (BMG Labtechnologies, Offenburg, Germany) or a Viewlux (Perkin-Elmer). The ratio of the emissions at 665 nm and at 622 nm was taken as the measure for the amount of phosphorylated substrate.
Assay [3] has as its system phospho-AKT at S473. The assay is described as follows: Cellular p-AKT1/2/3-S473 assay in KPL-4 cells. It is filed as cell-based. Particulars: Homo sapiens, KPL4; KPL-4 breast tumour cell line, compound treatment 2 hours; read-out: pAKT-S473 median IC50.
Method: (§1) The molecular mechanism of action was investigated in a set of experiments to assess the inhibition of the PI3K-AKT-mTOR pathway in responsive cell lines such as KPL-4 breast tumour cell line (PIK3CA^H1047R, HER2^O/E and hormone independent). The phospho-substrates of PI3K-AKT-mTOR axis were used as the read-outs to reflect pathway inhibition. Cells were seeded at 60-80% confluency per well in 96-well cell culture plates. After overnight incubation at 37° C. 5% CO2, cells were treated with compounds and vehicle at 37° C. for 2 hours. […] All measurements where at least done in duplicates and confirmed by independent repetition.
Alternatively pAKT-S473 was measured using the “Akt Duplex” of the MULTI-SPOT® Assay System (Fa. Meso Scale Discovery, Cat#N41100B-1) following manufacturers instructions. Each assay used 20 μg of protein extract and measured total AKT and p-AKT content simultaneously in one well. All measurements where at least done in duplicates and confirmed by independent repetition. Values for P-AKT are expressed as percentage of P-AKT level compared to total-AKT content of the extracts.
For assay [4], the system named is p-4E-BP1 at T70. The assay is described as follows: Cellular p-4E-BP1-T70 assay in KPL-4 cells. It is filed as cell-based. Particulars: Homo sapiens, KPL4; KPL-4 breast tumour cell line, compound treatment 2 hours; read-out: P4EBP1-T70 median IC50.
Method: as §1
Assay [5] concerns KPL-4 breast cancer cell line. The assay is described as follows: Tumor cell proliferation assay (CellTiter-Glo), KPL-4. Type of assay: cell-based. Particulars: Homo sapiens, KPL4, 72 h drug exposure, read-out: KLP-4 median IC50.
Assay [6] relates to MCF-7 breast tumour cell line. The assay is described as follows: Tumor cell proliferation assay (CellTiter-Glo), MCF-7. It is filed as cell-based. Particulars: Homo sapiens, MCF7, 72 h drug exposure, read-out: MCF-7 median IC50.
Method: Biological Assay 4.0: Tumor Cell Proliferation Assays
Compounds were tested in a cell-based assay that measures the capacity of the compounds to inhibit tumour cell proliferation following a 72 h drug exposure. Cell viability is determined using CellTiter-Glow® (CTG, Promega, cat#G7571/2/3). The CellTiter-Glo® Luminescent Cell Viability Assay is a homogeneous method to determine the number of viable cells in culture.
Detection is based on using the luciferase reaction to measure the amount of ATP from viable cells. The amount of ATP in cells correlates with cell viability. Within minutes after a loss of membrane integrity, cells lose the ability to synthesize ATP, and endogenous ATPases destroy any remaining ATP; thus the levels of ATP fall precipitously.
For each cell line assayed, cells were plated onto a separate plate for determination of fluorescence at t=0 hour and t=72 hour time points. Following overnight incubation at 37° C., chemiluminescence values for the t=0 samples were determined after adding 10 μl medium and 100 μl CTG solution according to manufacture protocol. Plates for the t=72 hour time points were treated with compounds diluted into growth medium at ten times final concentration added in 10 μL to the cell culture plate. Cells were then incubated for 72 hours at 37° C. Chemiluminescence values for the t=72 hour samples were determined. […] Experiments were controlled using a reference compound as standard.

Chain of His-tagged human recombinant kinase full-length Akt2 (P31751 whole entry): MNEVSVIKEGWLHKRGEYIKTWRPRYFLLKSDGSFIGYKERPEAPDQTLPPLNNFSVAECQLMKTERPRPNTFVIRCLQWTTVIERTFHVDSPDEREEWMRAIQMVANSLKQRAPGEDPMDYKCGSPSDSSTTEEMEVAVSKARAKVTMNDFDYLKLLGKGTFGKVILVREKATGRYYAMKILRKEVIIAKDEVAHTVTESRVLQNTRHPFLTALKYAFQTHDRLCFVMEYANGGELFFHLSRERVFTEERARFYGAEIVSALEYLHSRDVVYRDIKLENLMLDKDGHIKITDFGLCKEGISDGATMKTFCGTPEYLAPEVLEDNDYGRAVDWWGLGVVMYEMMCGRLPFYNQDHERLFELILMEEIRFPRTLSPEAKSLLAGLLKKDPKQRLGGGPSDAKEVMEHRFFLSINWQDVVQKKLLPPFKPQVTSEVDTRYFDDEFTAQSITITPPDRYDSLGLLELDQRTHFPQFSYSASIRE

In the case of `CCOc1cc(OCC)c2nc(-c3ccc(C4(N)CCC4)cc3)c(-c3ccccc3)n2n1` [Example 76, 1-[4-(6,8-Diethoxy-3-phenylimidazo[1,2-b]pyridazin-2-yl)phenyl]cyclobutanamine], the pIC50 – broadly, the IC50 on a negative log10 scale, so that one unit is a factor of ten – in assay [1] was 7.96; in assay [2], 7.64; in assay [3], 6.92; in assay [4] it was 6.03; in assay [5] it was 5.77; in assay [6], 6.03.
For `NC1(c2ccc(-c3nc4c(-c5cc[nH]n5)ccnn4c3-c3ccccc3)cc2)CCC1` [Example 27, 1-{4-[3-Phenyl-8-(1H-pyrazol-3-yl)imidazo[1,2-b]pyridazin-2-yl]phenyl}cyclobutanamine], the pIC50 in assay [1] is 7.82; in assay [2], 7.54; in assay [3] it was 7.44; in assay [4], 6.32; in assay [5] it was 5.74; in assay [6], 5.74.
In the case of `COc1nn2c(-c3ccccc3)c(-c3ccc(C4(N)CCC4)cc3)nc2c(C)c1C` [Example 53, 1-[4-(6-Methoxy-7,8-dimethyl-3-phenylimidazo[1,2-b]pyridazin-2-yl)phenyl]-cyclobutanamine], the pIC50 is 8.04 in assay [1]; 8.62 in assay [2]; 6.70 in assay [3]; 6.00 in assay [4]; 5.77 in assay [5]; 6.06 in assay [6].
Turning to `Cc1c(Cl)nn2c(-c3ccccc3)c(-c3ccc(C4(N)CCC4)cc3)nc2c1C` [Example 50, 1-[4-(6-Chloro-7,8-dimethyl-3-phenylimidazo[1,2-b]pyridazin-2-yl)phenyl]-cyclobutanamine], the pIC50 in assay [1] was 7.36; in assay [2], 7.57; in assay [3], 6.35; in assay [4], 5.70; in assay [5], 5.77; in assay [6], 5.74.
Turning to `COC(=O)c1nn2c(-c3ccccc3)c(-c3ccc(C4(N)CCC4)cc3)nc2c(C)c1C` [Example 51, Methyl 2-[4-(1-aminocyclobutyl)phenyl]-7,8-dimethyl-3-phenylimidazo[1,2-b]pyridazine-6-carboxylate], the pIC50 in assay [1] is 7.38; in assay [2], 7.09; in assay [3] it was 6.23; in assay [4], 5.92; in assay [5], 5.15; in assay [6], 5.85.
With `COc1cc(-c2cccnc2)c2nc(-c3ccc(C4(N)CCC4)cc3)c(-c3ccccc3)n2n1` [Example 14, 1-{4-[6-Methoxy-3-phenyl-8-(pyridin-3-yl)imidazo [1,2-b]pyridazin-2-yl]phenyl}cyclobutanamine], the pIC50 in assay [1] was 8.01; in assay [2] it was 7.19; in assay [3] it was 6.66; in assay [4], 6.49; in assay [5], 5.72; in assay [6], 5.74.
For `NC1(c2ccc(-c3nc4c(-c5cc[nH]n5)cc(C(=O)NCCO)nn4c3-c3ccccc3)cc2)CCC1` [Example 71, 2-[4-(1-Aminocyclobutyl)phenyl]-N-(2-hydroxyethyl)-3-phenyl-8-(1H-pyrazol-3-yl)imidazo[1,2-b]pyridazine-6-carboxamide], the pIC50 was 7.96 in assay [1]; 7.70 in assay [2]; 7.04 in assay [3]; 5.00 in assay [4]; 5.70 in assay [5]; 6.11 in assay [6].
For the molecule `CNC(=O)c1ccnn2c(-c3ccccc3)c(-c3ccc(C4(N)CCC4)cc3)nc12` [Example 63, 2-[4-(1-Aminocyclobutyl)phenyl]-N-methyl-3-phenylimidazo[1,2-b]pyridazine-8-carboxamide], the pIC50 in assay [1] is 7.34; in assay [2] it was 6.92; in assay [3], 8.42; in assay [4], 9.52; in assay [5], 5.80; in assay [6] it was 6.12.
Turning to `CCOc1cc(Cl)nn2c(-c3ccccc3)c(-c3ccc(C4(N)CCC4)cc3)nc12` [Example 30, 1-[4-(6-Chloro-8-ethoxy-3-phenylimidazo[1,2-b]pyridazin-2-yl)phenyl]cyclobutanamine], the negative-log IC50 (pIC50) was 7.29 in assay [1]; 7.24 in assay [2]; 6.40 in assay [3]; 5.60 in assay [4]; 5.22 in assay [5]; 5.59 in assay [6].
Regarding `CS(=O)(=O)Nc1ccc2nc(-c3ccc(C4(N)CCC4)cc3)c(-c3ccccc3)n2n1` [Example 45, N-{2-[4-(1-Aminocyclobutyl)phenyl]-3-phenylimidazo[1,2-b]pyridazin-6-yl} methanesulfonamide], the pIC50 in assay [1] is 5.92; in assay [2] it was 5.18; in assay [3], below 5.00; in assay [4], below 5.00; in assay [5] it was below 5.00; in assay [6] it was below 5.00.
`NC1(c2ccc(-c3nc4c(-c5cc[nH]n5)cc(Cl)nn4c3-c3ccccc3)cc2)CCC1` [Example 19, 1-{4-[6-Chloro-3-phenyl-8-(1H-pyrazol-3-yl)imidazo[1,2-b]pyridazin-2-yl]phenyl} cyclobutanamine]: the pIC50 is 7.82 in assay [1]; 7.38 in assay [2]; 6.41 in assay [3]; 5.29 in assay [4]; 5.70 in assay [5]; 5.74 in assay [6].
Take `CCc1cc(-c2cc[nH]n2)c2nc(-c3ccc(C4(N)CCC4)cc3)c(-c3ccccc3)n2n1` [Example 21, 1-{4-[6-Ethyl-3-phenyl-8-(1H-pyrazol-3-yl)imidazo [1,2-b]pyridazin-2-yl]phenyl}cyclobutanamine]: the pIC50 in assay [1] is 7.14; in assay [2], 6.89; in assay [3], 6.38; in assay [4] it was 5.77; in assay [5], 5.70; in assay [6], 5.74.
Turning to `COc1cc(OC)c2nc(-c3ccc(C4(N)CCC4)cc3)c(-c3ccccc3)n2n1` [Example 9, 1-[4-(6,8-Dimethyloxy-3-phenylimidazo[1,2-b]pyridazin-2-yl)phenyl]-cyclobutanamine], the pIC50 in assay [1] is 8.41; in assay [2] it was 7.74; in assay [3], 7.44; in assay [4], 6.16; in assay [5] it was 6.11; in assay [6], 6.47.
On to `COC(=O)c1cc(-c2cc[nH]n2)c2nc(-c3ccc(C4(N)CCC4)cc3)c(-c3ccccc3)n2n1` [Example 56, Methyl 2-[4-(1-aminocyclobutyl)phenyl]-3-phenyl-8-(1H-pyrazol-3-yl)-imidazo[1,2-b]pyridazine-6-carboxylate], for which the pIC50 in assay [1] was 8.18; in assay [2], 7.80; in assay [3], 6.24; in assay [4], 6.44; in assay [5], 5.09; in assay [6] it was 5.96.
